Measurements published in paper PMC4254016 (Bioorganic & medicinal chemistry, 2014).

Tests used:
ΔpvdA PAO1 = assay type: cell-based, Pseudomonas aeruginosa; conditions: high iron (200 µM FeCl3), 24 hrs
[1] = molecular target: isochorismate-pyruvate lyase PchB (Pseudomonas aeruginosa, UniProt Q51507); assay type: biochemical
salicylate synthase Irp9 = salicylate synthase Irp9 (Yersinia enterocolitica, UniProt Q9X9I8); assay type: biochemical
chorismate mutase EcCM = chorismate mutase EcCM (Escherichia coli, UniProt P0A9J8); assay type: biochemical, E. coli
P. aeruginosa PAO1 = experiment: Bacterial growth inhibition, wildtype PAO1; assay type: cell-based, Pseudomonas aeruginosa; conditions: high iron (200 µM FeCl3), 24 hrs
ΔpchE PAO1 = assay type: cell-based, Pseudomonas aeruginosa; conditions: high iron (200 µM FeCl3), 24 hrs
PchB = conditions: read-out: Ki PchB; cited from earlier work

Chain of isochorismate-pyruvate lyase PchB (Q51507 whole entry): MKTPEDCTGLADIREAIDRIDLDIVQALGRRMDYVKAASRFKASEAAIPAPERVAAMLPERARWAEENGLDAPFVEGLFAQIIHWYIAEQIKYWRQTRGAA
Chain of chorismate mutase EcCM (P0A9J8 1-92): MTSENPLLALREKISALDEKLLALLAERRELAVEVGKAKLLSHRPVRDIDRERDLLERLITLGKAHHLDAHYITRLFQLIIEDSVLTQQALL
Chain of salicylate synthase Irp9 (Q9X9I8 1-434): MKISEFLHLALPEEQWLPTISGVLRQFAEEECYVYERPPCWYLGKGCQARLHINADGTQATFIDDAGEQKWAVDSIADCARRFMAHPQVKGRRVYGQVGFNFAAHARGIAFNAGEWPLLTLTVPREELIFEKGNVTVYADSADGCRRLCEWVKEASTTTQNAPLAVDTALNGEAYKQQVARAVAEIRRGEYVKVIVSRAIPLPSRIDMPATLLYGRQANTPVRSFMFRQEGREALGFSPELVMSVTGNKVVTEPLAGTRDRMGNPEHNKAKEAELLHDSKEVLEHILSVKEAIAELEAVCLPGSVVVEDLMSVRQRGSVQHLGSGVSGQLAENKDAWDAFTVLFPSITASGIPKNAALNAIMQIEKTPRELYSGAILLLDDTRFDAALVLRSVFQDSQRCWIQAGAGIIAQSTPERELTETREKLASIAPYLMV

Row | Compound | EC50 growth inhibition ΔpvdA p.a. (ΔpvdA PAO1) | mode of inhibition of PchB [1] | mode of inhibition of Irp9 (salicylate synthase Irp9) | mode of inhibition of EcCM (chorismate mutase EcCM) | EC50 growth inhibition PAO1 p.a. (P. aeruginosa PAO1) | EC50 growth inhibition ΔpchE p.a. (ΔpchE PAO1) | Ki (PchB) [mM]
1 | COC(=O)Oc1c([N+](=O)[O-])cc2oc(=O)sc2c1[N+](=O)[O-] [Compound 10] | did not cause growth inhibition | competitive inhibitors | competitive inhibitor | competitive inhibitors | did not cause growth inhibition | did not cause growth inhibition | 
2 | O=P(O)(O)C12CC3CC(CC(C3)C1)C2 [adamantane-1-phosphonate] |  |  |  |  |  |  | > 5
